Experimental findings from patent publication US12233047B2, “Pharmaceutical combination and use thereof” (ASCENTAGE PHARMA (SUZHOU) CO., LTD., priority 2019, dated 2025) are described below.

Assay [1] concerns Human AML cell line MV-4-11 (FLT3-ITD positive and wild type TP53 gene). Kind of assay: Human MV-4-11 AML subcutaneous mouse xenograft model. Format: in vivo. The following applies: MV-4-11 subcutaneous xenograft, Compound 23 10 mg/kg, Compound C 30 mg/kg. The protocol: The formulation of Compound C was prepared as homogenous suspension in 0.2% HPMC using a mortar. The drug suspension was prepared every three days or once a week and placed at 4° C. when not in use. Before use, the drug suspension was placed at room temperature and shaken to mix well. The formulation of Compound C was administered to mice via p.o. in a volume of 10 mL/kg. […] The drug suspension was prepared once every other day and placed at 4° C. when not in use. Before use, the drug suspension was placed at room temperature and shaken well. […] MV-4-11 cells (Human AML cell line MV-4-11 (FLT3-ITD positive and wild type TP53 gene)) were maintained in IMDM (Cat. C12440500BT, GIBCO), with 10% fetal bovine serum (Cat. 10099-141, GIBCO), 1% L-glutamine, 100 U/mL penicillin G and 100 μg/mL streptomycin (Cat. GNM15140, Hangzhou Geno Biomedical Technology Co., Ltd). Cells were incubated at 37° C. in a humidified incubator with 5% CO2. Six to eight weeks old, female, NOD SCID and BALB/c nude mice were used. Animals were obtained from Vital River Laboratories (VRL, Beijing, China, license number SCXK(J) 2012-0001 and SCXK(J) 2016-0006). The body weights were 17-24 g. Randomization was conducted when the size of xenograft tumors reached 100-150 mm^3. Based on the size of the tumor and body weight, animals were randomly assigned into experimental groups. […] MV-4-11 subcutaneous xenograft models were established by subcutaneously injecting tumor cells (1×10^7 cells (50% Matrigel)/mouse) into the right flank of the mouse under the sterile condition. When the tumors reached an appropriate size (100-200 mm^3), mice were randomized into 6 mice per group and treatment was initiated (day 1) according to Table 4. [table] The tumors sizes and animal body weights were measured twice a week. Tumor volumes were estimated from measurements of two diameters of the individual tumors as follows: Tumor Volume (mm^3)=(a×b^2)/2 Relative tumor volume (RTV) were calculated according to the follows: RTV=Vt/V1 where V1 and Vt were respectively the average tumor volume on the first day of treatment (day 1) and the average tumor volume on a certain time point (day T). Standard NCI procedures were used to calculate tumor parameters (Teicher, B. A. (2011). “Tumor Models in Cancer Research.” Second Edition, Human Press). Percent tumor growth inhibition (% T/C) was calculated as the mean RTV of treated tumors (T) divided by the mean RTV of control tumors (C)×100%. […] A body weight loss (mean of group) of greater than 20%, or greater than 20% of drug deaths are considered to indicate an excessively toxic dosage. The synergistic analysis was performed using the following formula described in Clarke R. Issues in experimental design and endpoint analysis in the study of experimental cytotoxic agents in vivo in breast cancer and other models[J]. Breast Cancer Research & Treatment, 1997, 46(2-3):255-278, which is incorporated by reference in its entirety: expected value=(A/C)×(B/C); actual value=(AB)/C; A: RTV of drug A; B: RTV of drug B; C=RTV of the vehicle control group; AB=RTV of the combination group. Ratio=expected/actual value. […] A ratio=1 indicates the two drugs have additive effects. A ratio <1 indicates the two drugs may have antagonist effects. According to the earlier publication (Gao, H., et al. (2015). “High-throughput screening using patient-derived tumor xenografts to predict clinical trial drug response” Nat Med 21: 1318), additional measurements of response included stable disease (SD), partial tumor regression (PR), and complete regression (CR) were determined by comparing tumor volume change at day t to its baseline: tumor volume change (%)=(Vt−V1)/V1. […] For each time t, the average of tumor volume change from t=1 to t was also calculated. […]
On the technique in general: A xenograft is tissue or cells of one species grown in another, often human tumour cells in immunodeficient mice.

In assay [2] the test system is Human AML cell line MOLM-13 (FLT3-ITD positive and wild type TP53 gene). The assay is described as follows: Human MOLM-13 AML systemic mouse xenograft model, survival. The format is in vivo. The following applies: MOLM-13 systemic model, Compound 23 10 mg/kg, Compound C 20 mg/kg, p.o. q2d × 21 d. The protocol:
The formulation of Compound C was prepared as homogenous suspension in 0.2% HPMC using a mortar. The drug suspension was prepared every three days or once a week and placed at 4° C. when not in use. Before use, the drug suspension was placed at room temperature and shaken to mix well. The formulation of Compound C was administered to mice via p.o. in a volume of 10 mL/kg.
The formulation of Compound 23 was prepared in 0.2% HPMC in a mortar to generate homogenous suspension. The drug suspension was prepared once every other day and placed at 4° C. when not in use. Before use, the drug suspension was placed at room temperature and shaken well. The formulation of Compound 23 was administered to mice via p.o. in a volume of 10 mL/kg.
MOLM-13 cell lines (Human AML cell line MOLM-13 (FLT3-ITD positive and wild type TP53 gene)) were maintained in RPMI-1640 (Cat. C11875500BT, GIBCO) with 10% fetal bovine serum (Cat. 10099-141, GIBCO), 1% L-glutamine, 100 U/mL penicillin G and 100 μg/mL streptomycin (Cat. GNM15140, Hangzhou Geno Biomedical Technology Co., Ltd). Cells were incubated at 37° C. in a humidified incubator with 5% CO2.
Six to eight weeks old, female, NOD SCID and BALB/c nude mice were used. Animals were obtained from Vital River Laboratories (VRL, Beijing, China, license number SCXK(J) 2012-0001 and SCXK(J) 2016-0006). The body weights were 17-24 g.
MOLM-13 systemic tumor model were established by injecting tumor cells into the tail vein (10×10^6 cells/mouse) under the sterile condition. To establish the MOLM-13 systemic model, all animals were intraperitoneally injected (i.p.) with cyclophosphamide (150 mg/kg) for two consecutive days before the inoculation of MOLM-13 cells. On the third day after cell inoculation, animals were randomized into 10 mice per group and treatment was initiated (day 1) according to Table 2.
The animals were euthanized when the experimental animals had symptoms such as weight loss and weight loss greater than 20%, limb paralysis, tumor metastasis to the eye causing ocular protrusion, tumor metastasis to the abdominal cavity causing abdominal enlargement. These severe health issues were considered as the same as animal death caused by tumor growth and the affected animals were sacrificed immediately.
The date of the last mouse died (the last measurement) was used for analysis of median overall survival and the generation of Kaplan-Meier plots. Survival curves of different treatment groups were compared using log-rank test with Bonferroni's multiple test. All data were analyzed in SPSS version 18.0 (IBM, Armonk, NY, U.S.A.). Prism version 6 (GraphPad Software Inc., San Diego, CA, U.S.A.) was used for graphic presentation.

With `CCN1[C@@H](C(=O)NC23CCC(C(=O)O)(CC2)CC3)[C@H](c2cccc(Cl)c2F)[C@]2(C(=O)Nc3cc(Cl)ccc32)C12CCCCC2` [Compound C], the “Tumor weight on D 22 (Mean ± SEM)” value in assay [1] (day 22, p.o. q2d × 22 d, vehicle 2.29 ± 0.29, in g (unit assumed)) is reported as 1.45 ± 0.32. In addition, the “T/C(%)@D 22” value in assay [1] (mean RTV treated/control, day 22, p.o. q2d) was found to be 59.6%. Also, the “RTV@D 22” value in assay [1] (relative tumor volume day 22, p.o. q2d, vehicle 18.2 ± 3.3) came out at 10.8 ± 1.6. Also, in assay [2] (vehicle 19 days), the “Median survival time of mice” value amounted to 25.5 days. The “Prolonged survival time of mice” value in assay [2] (versus vehicle) stood at 6.5 days.
